Experiments:
COMT [1] = assay: Ex vivo brain COMT activity after administration by gastric tube; assay type: in vivo, rat; conditions: for COMT activity (% of control), Brain: rat brain homogenate; for inhibition of brain COMT (in words) / inhibitory profile brain COMT versus liver COMT (in words): after oral administration; for inhibition of brain COMT (in words) / inhibitory profile brain COMT versus liver COMT (in words) / access to the brain / activity in the periphery (in words): rat; for inhibitory profile brain COMT versus liver COMT (in words): brain compared with liver; for access to the brain / activity in the periphery (in words): conclusion from ex vivo COMT inhibition
COMT [2] = assay: COMT activity (methylation of adrenaline to metanephrine) in rat brain homogenates; assay type: biochemical; conditions: rat brain homogenate; test compound 100 nM; means±SEM, n=4-8
COMT [3] = assay: COMT activity (methylation of adrenaline to metanephrine) in rat liver homogenates; assay type: biochemical; conditions: rat liver homogenate; test compound 3 μM; means±SEM, n=4-8
COMT [4] = molecular target: T1, COMT (Homo sapiens, UniProt P21964); assay: COMT activity in intact SK-N-SH cell monolayers; assay type: cell-based; conditions: SK-N-SH cells; test compound 100 nM; means±SEM, n=4-8
T1 construct: COMT activity was evaluated in cell monolayers by the ability to methylate adrenaline; host or cells: SK-N-SH cells
T1 sequence (P21964 1-271): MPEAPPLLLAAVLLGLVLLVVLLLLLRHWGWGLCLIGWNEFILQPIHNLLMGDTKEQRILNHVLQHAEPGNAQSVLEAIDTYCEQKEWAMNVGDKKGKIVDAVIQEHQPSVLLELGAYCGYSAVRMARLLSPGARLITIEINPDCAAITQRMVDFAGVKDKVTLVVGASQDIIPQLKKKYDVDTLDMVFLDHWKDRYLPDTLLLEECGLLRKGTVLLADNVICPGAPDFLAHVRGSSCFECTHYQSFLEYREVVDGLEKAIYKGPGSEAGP

COMT [5] = assay: Ex vivo liver COMT activity after administration by gastric tube; assay type: in vivo; conditions: rat liver homogenate
[6] = 0.5 h after administration by gastric tube
[7] = 1 h after administration by gastric tube
[8] = 3 h after administration by gastric tube
[9] = 6 h after administration by gastric tube
[10] = 9 h after administration by gastric tube

Compound: CCCC(=O)Oc1ccc(C(=O)c2ccccc2)c([N+](=O)[O-])c1OC(=O)CCC [Compound 20, Butyric Acid, 3-Benzoyl-6-butyryloxy-2-nitro-phenyl Ester]
- COMT activity (% of control), Brain (COMT [1]; [6]): 25.8 ± 4.3 % of control
- COMT activity (% of control), Brain (COMT [1]; [7]): 31.4 ± 3.0 % of control
- COMT activity (% of control), Brain (COMT [1]; [8]): 49.4 ± 5.3 % of control
- COMT activity (% of control), Brain (COMT [1]; [9]): 81.3 ± 3.7 % of control
- COMT activity (% of control), Brain (COMT [1]; [10]): 72.8 % of control
- inhibition of brain COMT (in words) (COMT [1]): potent inhibitors of brain COMT
- inhibitory profile brain COMT versus liver COMT (in words) (COMT [1]): much more potent upon brain COMT than liver COMT
- access to the brain / activity in the periphery (in words) (COMT [1]): enhanced access to the brain and limited activity in the periphery
- COMT activity, Brain (% of control) (COMT [2]): 3 ± 0 % of control
- COMT activity, Liver (% of control) (COMT [3]): 0.6 ± 0.0 % of control
- COMT activity, SK-N-SH (% of control) (COMT [4]): 0 ± 0 % of control
- COMT activity (% of control), Liver (COMT [5]; [6]): 57.9 ± 4.7 % of control
- COMT activity (% of control), Liver (COMT [5]; [7]): 64.4 ± 5.0 % of control
- COMT activity (% of control), Liver (COMT [5]; [8]): 66.5 ± 7.8 % of control
- COMT activity (% of control), Liver (COMT [5]; [9]): 94.5 ± 0.3 % of control
- COMT activity (% of control), Liver (COMT [5]; [10]): 110.1 % of control

Compound: O=C(Cc1ccccc1)c1ccc(O)c(O)c1[N+](=O)[O-] [Compound 24, 1-(3,4-Dihydroxy-2-nitro-phenyl)-2-phenyl ethanone]
- COMT activity (% of control), Brain (COMT [1]; [6]): 18.7 ± 1.6 % of control
- COMT activity (% of control), Brain (COMT [1]; [7]): 18.7 ± 0.6 % of control
- COMT activity (% of control), Brain (COMT [1]; [8]): 37.0 ± 5.9 % of control
- COMT activity (% of control), Brain (COMT [1]; [9]): 64.8 ± 3.7 % of control
- COMT activity (% of control), Brain (COMT [1]; [10]): 98.4 % of control
- inhibition of brain COMT (in words) (COMT [1]): potent inhibitors of brain COMT
- access to the brain / activity in the periphery (in words) (COMT [1]): limited access to the brain
- COMT activity, Brain (% of control) (COMT [2]): 7 ± 1 % of control
- COMT activity, Liver (% of control) (COMT [3]): 0.7 ± 0.0 % of control
- COMT activity, SK-N-SH (% of control) (COMT [4]): 24 ± 1 % of control
- COMT activity (% of control), Liver (COMT [5]; [6]): 6.2 ± 0.8 % of control
- COMT activity (% of control), Liver (COMT [5]; [7]): 8.4 ± 1.6 % of control
- COMT activity (% of control), Liver (COMT [5]; [8]): 61.9 ± 10.8 % of control
- COMT activity (% of control), Liver (COMT [5]; [9]): 91.6 ± 8.8 % of control
- COMT activity (% of control), Liver (COMT [5]; [10]): 125.9 % of control

Compound: O=C(c1ccccc1)c1ccc(O)c(O)c1[N+](=O)[O-] [Compound 5, (3,4-Dihydroxy-2-nitro-phenyl)-phenyl-methanone]
- COMT activity (% of control), Brain (COMT [1]; [6]): 12.2 ± 0.3 % of control
- COMT activity (% of control), Brain (COMT [1]; [7]): 25.5 ± 1.8 % of control
- COMT activity (% of control), Brain (COMT [1]; [8]): 52.2 ± 2.3 % of control
- COMT activity (% of control), Brain (COMT [1]; [9]): 92.5 ± 7.9 % of control
- COMT activity (% of control), Brain (COMT [1]; [10]): 102.3 % of control
- inhibitory profile brain COMT versus liver COMT (in words) (COMT [1]): much more potent as a peripheral COMT inhibitor than in brain
- access to the brain / activity in the periphery (in words) (COMT [1]): limited access to the brain
- COMT activity, Brain (% of control) (COMT [2]): 6 ± 1 % of control
- COMT activity, Liver (% of control) (COMT [3]): 0.3 ± 0.1 % of control
- COMT activity, SK-N-SH (% of control) (COMT [4]): 2 ± 0 % of control
- COMT activity (% of control), Liver (COMT [5]; [6]): 2.1 ± 0.5 % of control
- COMT activity (% of control), Liver (COMT [5]; [7]): 26.5 ± 1.3 % of control
- COMT activity (% of control), Liver (COMT [5]; [8]): 52.1 ± 2.6 % of control
- COMT activity (% of control), Liver (COMT [5]; [9]): 79.0 ± 14.8 % of control
- COMT activity (% of control), Liver (COMT [5]; [10]): 108.9 % of control
